Assay results: PMC8151276, “An Integrated Approach toward NanoBRET Tracers for Analysis of GPCR Ligand Engagement” (Molecules, 2021)

Biological target: T1, FPR1 (Homo sapiens, UniProt P21462)
T1 construct: purchased Promega (in-house HiBiT-GPCR construct library, NanoBRET)
T1 sequence (P21462 1-350): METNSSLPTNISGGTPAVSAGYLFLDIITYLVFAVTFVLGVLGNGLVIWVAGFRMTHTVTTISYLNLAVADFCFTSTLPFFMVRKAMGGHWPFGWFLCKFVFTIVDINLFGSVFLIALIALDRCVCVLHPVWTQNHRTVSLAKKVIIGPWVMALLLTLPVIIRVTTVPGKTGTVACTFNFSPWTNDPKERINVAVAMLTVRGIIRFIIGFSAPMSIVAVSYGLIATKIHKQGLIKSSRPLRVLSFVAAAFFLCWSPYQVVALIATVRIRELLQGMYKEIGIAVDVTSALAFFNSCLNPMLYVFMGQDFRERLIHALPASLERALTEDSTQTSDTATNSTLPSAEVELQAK
Experiment: NanoBRET screen HiBiT-FPR1 in HEK293
Type: binding
Description: Each tracer candidate was screened across the entire library of HiBiT-GPCR constructs using NanoBRET as the detection modality. As depicted in Figure 4A, the specificity of interactions was evaluated through decrease in BRET due to competitive displacement of a bound tracer by excess parental compound. Each tracer was analyzed for binding to each HiBiT-GPCR fusion in the absence and in the presence of competing parental compound. Briefly, HEK293 cells were transfected with HiBiT-GPCR constructs diluted into promoterless DNA to reduce expression and maximize translocation to the cell surface. Each tracer candidate was then screened at concentrations of 1 μM and 0.1 μM across cells expressing these fusions. Cells were treated for 1.5 h with tracer either alone or in the presence of 20 μM competing parental compound (i.e., control). BRET was measured upon addition of purified LgBiT and subsequent complementation with HiBiT genetically fused to a GPCR. The specificity of interactions was assessed through a decrease in BRET signal due to competitive displacement of the bound tracer. To further gauge the robustness of these interactions, the fold response over the control (i.e., BRETtracer/BRETcontrol) was calculated. We chose a 1.5-fold response, which translates to ≥7-fold signal over noise as the minimal threshold required to score an interaction as positive. […]. Below we highlight the screening results obtained for our exemplary fluorescent tracers based on Clozapine, Amitriptyline and AZD1283.
HiBiT-GPCR DNA constructs were diluted in 10 mM Tris pH 8 to a final concentration of 0.01 μg/μL, arrayed in 96-well plates and stored at −20 °C. For transfection, HEK293 cells were suspended in Opti-MEM (without phenol red) supplemented with 2% fetal bovine serum (Seradigm) and 100 units/mL penicillin–streptomycin (Gibco) at a final concentration of 220,000 cells/mL and dispensed into white 96-well plates at 90 μL/well. Subsequent transfections and screens were carried using an Agilent Bravo Automated Liquid Handling Platform. First, the 96-well HiBiT DNA arrays were diluted 25-fold in Opti-MEM (without serum or phenol red) to a final concentration of 0.0004 μg/μL and 20 μL of the diluted DNAs were transferred into new 96-well plates. Next, promoterless carrier DNA (1 μg/μL) was diluted 25-fold (0.04 μg/μL) and then dispensed into the diluted arrays at 20 μL/well. Following brief mixing, Viafect transfection reagent (Promega) diluted 16-fold into Opti-MEM was dispensed into the plates at 40 μL/well. After mixing by pipetting, plates were incubated for 10 min on the pipetting station deck. The DNA-transfection reagent complexes were then added to plates containing cells. To facilitate the screen, 10 μL of DNA-transfection reagent complexes were added in duplicates to the top 4 and bottom 4 rows, resulting in two identical 48-well arrays per plate. Plates with transfected cells were incubated for 18–20 h at 37 °C/5% CO2. A screen of each tracer across the entire library using two different concentrations requires duplicate plates of transfected cells. Depending on the number of tracers being screened, transfections can be scaled up using the same ratios. The next day, for each tracer, four 20× screening solutions in tracer dilution buffer (Promega) were prepared: two duplicates at final concentration of 20 μM and two duplicates at a final concentration of 2 μM. A competing unmodified compound was added to one of each duplicate at a final concentration of 400 μM. The four resulting solutions were diluted 4-fold in Opti-MEM without serum or phenol red to generate 5× solutions (5 µM and 0.5 µM tracer +/− 100 μM competing compound). To screen the library, a BioTek MultiFlo FX liquid dispenser was used to dispense 22.5 µL of tracer solution to the top 4 rows and 22.5 µL tracer + competing compound solution to the 4 bottom rows. Plates were briefly mixed on an orbital shaker and incubated for 1.5 h at room temperature. […]

Row | SMILES | NanoBRET Fold Response (FPR1, tracer 0.1μM) | NanoBRET Fold Response (FPR1, tracer 1μM) | also measured
1 | O=C(CCc1ccc2n1[B-](F)(F)[N+]1=C(c3ccc[nH]3)C=CC1=C2)NCc1ccc(C(=O)NCCOCCC(=O)N[C@@H]2CC[C@@]3(O)[C@H]4Cc5ccc(O)c6c5[C@@]3(CCN4CC3CC3)[C@H]2O6)cc1 [Naltrexone-3-NB590] | 0.90 | 0.98 | –
2 | CCCn1c(=O)c2[nH]c(-c3ccc(OCC(=O)NCCNC(=O)CCOCCNC(=O)c4ccc(CNC(=O)CCc5ccc6n5[B-](F)(F)[N+]5=C(c7ccc[nH]7)C=CC5=C6)cc4)cc3)nc2n(CCC)c1=O [XAC-3-NB590] | 1.15 | 1.10 | –
3 | CC(C)N(CC[C@H](c1ccccc1)c1cc(CCNC(=O)c2ccc(CNC(=O)CCc3ccc4n3[B-](F)(F)[N+]3=C(c5ccc[nH]5)C=CC3=C4)cc2)ccc1O)C(C)C [Tolterodine-BZ-NB590] | 1.02 | 1.02 | –
4 | COc1ccc2[nH]c(-c3ccc(CNC(=O)CCOCCOCCOCCOCCNC(=O)CCc4ccc5n4[B-](F)(F)[N+]4=C(c6ccc[nH]6)C=CC4=C5)cc3)c(CCNC(C)=O)c2n1 [AzomelatoninICO9-2-NB590] | – | – | NanoBRET Fold Response (0.1μM tracer): 1.02; NanoBRET Fold Response (1μM tracer): 0.90
5 | CN1CCN(C2=Nc3cc(Cl)ccc3N(CC(=O)NCCOCCOCCOCCOCCNC(=O)CCc3ccc4n3[B-](F)(F)[N+]3=C(c5ccc[nH]5)C=CC3=C4)c3ccccc32)CC1 [Clozapine-c-2-NB590] | – | – | NanoBRET Fold Response (FPR1, 0.1μM tracer): 0.98; NanoBRET Fold Response (FPR1, 1μM tracer): 1.04
6 | COc1ccccc1N1CCN(CCCCN2C(=O)c3ccc(CNC(=O)CCOCCNC(=O)c4ccc(CNC(=O)CCc5ccc6n5[B-](F)(F)[N+]5=C(c7ccc[nH]7)C=CC5=C6)cc4)cc3C2=O)CC1 [NAN-190-3-NB590] | 0.95 | 1.09 | –
7 | Cc1nc2n(c(=O)c1CCN1CCC(c3noc4cc(F)ccc34)CC1)CCCC2OC(=O)NCCOCCOCCOCCOCCNC(=O)CCc1ccc2n1[B-](F)(F)[N+]1=C(c3ccc[nH]3)C=CC1=C2 (stereo not shown) [Risperidone-2-NB590] | 0.97 | 0.91 | –
8 | O=C(CCOCCOCCOCCOCCNC(=O)CCc1ccc2n1[B-](F)(F)[N+]1=C(c3ccc[nH]3)C=CC1=C2)NCCCN1CCN(C2=Nc3ccccc3Oc3ccc(Cl)cc32)CC1 [Loxapine-a-2-NB590] | 0.99 | 1.10 | –
9 | COc1ccccc1N1CCN(CCCCN2C(=O)c3ccc(CNC(=O)CCOCCOCCOCCOCCNC(=O)CCc4ccc5n4[B-](F)(F)[N+]4=C(c6ccc[nH]6)C=CC4=C5)cc3C2=O)CC1 [NAN-190-2-NB590] | 1.09 | 1.04 | –
10 | CC(C)N(CC[C@H](c1ccccc1)c1cc(CCNC(=O)CCOCCOCCOCCOCCNC(=O)CCc2ccc3n2[B-](F)(F)[N+]2=C(c4ccc[nH]4)C=CC2=C3)ccc1O)C(C)C [Tolterodine-2-NB590] | 1.07 | 0.85 | –
11 | N#CN=C(NCCCOc1cccc(CN2CCCCC2)c1)NCCNC(=O)CCOCCOCCOCCOCCNC(=O)CCc1ccc2n1[B-](F)(F)[N+]1=C(c3ccc[nH]3)C=CC1=C2 [Aminopotentidine-2-NB590] | 0.99 | 0.97 | –
12 | CCOC(=O)c1cc(C#N)c(N2CCC(C(=O)NS(=O)(=O)Cc3ccccc3/C=C/C(=O)NCCNC(=O)CCc3ccc4n3[B-](F)(F)[N+]3=C(c5ccc[nH]5)C=CC3=C4)CC2)nc1C [AZD1283-1-NB590] | – | – | NanoBRET Fold Response (FPR1, 0.1μM): 1.09; NanoBRET Fold Response (FPR1, 1μM): 1.05
13 | CN(C)CCC=C1c2ccccc2CCc2ccc(C(=O)NCCNC(=O)CCOCCOCCOCCOCCNC(=O)CCc3ccc4n3[B-](F)(F)[N+]3=C(c5ccc[nH]5)C=CC3=C4)cc21 [Amitriptyline-b-2-NB590] | – | – | NanoBRET Fold Response (tracer at 0.1μM): 0.96; NanoBRET Fold Response (tracer at 1μM, listed as amitriptyline-b-2-NB590): 1.02
14 | CN(C)CCC=C1c2ccccc2CCc2ccc(C(=O)NCCNC(=O)CCOCCOCCOCCOCCNC(=O)CCc3ccc4n3[B-](F)(F)[N+]3=C(c5ccc[nH]5)C=CC3=C4)cc21 [Amitriptyline-a-2-NB590] | – | – | NanoBRET Fold Response (tracer at 0.1μM): 1.02; NanoBRET Fold Response (tracer at 1μM): 1.04
15 | O=C(CCc1ccc2n1[B-](F)(F)[N+]1=C(c3ccc[nH]3)C=CC1=C2)NCCOCCOCCNC(=O)OCCOCCN1CCN(C2=Nc3ccccc3Sc3ccccc32)CC1 [Quetiapine-a-2-NB590] | 1.05 | 0.92 | –
16 | Cc1cc2c(s1)Nc1ccccc1N=C2N1CCN(CCCNC(=O)CCOCCOCCOCCOCCNC(=O)CCc2ccc3n2[B-](F)(F)[N+]2=C(c4ccc[nH]4)C=CC2=C3)CC1 [Olanzapine-a-2-NB590] | 1.09 | 1.01 | –
17 | CN1CCN(C2=Nc3cc(Cl)ccc3Nc3ccc(CNC(=O)CCOCCOCCOCCOCCNC(=O)CCc4ccc5n4[B-](F)(F)[N+]4=C(c6ccc[nH]6)C=CC4=C5)cc32)CC1 [Clozapine-b-2-NB590] | – | – | NanoBRET Fold Response (FPR1, 0.1μM tracer): 0.98; NanoBRET Fold Response (FPR1, 1μM tracer): 1.00
18 | COc1ccc2c(n1)c(CCNC(C)=O)cn2CCNC(=O)CCc1ccc2n1[B-](F)(F)[N+]1=C(c3ccc[nH]3)C=CC1=C2 [Azamelatonin-1-NB590] | – | – | NanoBRET Fold Response (0.1μM tracer): 0.96; NanoBRET Fold Response (1μM tracer): 1.09
19 | O=C(CCc1ccc2n1[B-](F)(F)[N+]1=C(c3ccc[nH]3)C=CC1=C2)NCc1ccc(C(=O)NCCOCCOCCNCC(O)COc2cccc3ccccc23)cc1 (stereo not shown) [Propranolol-3-NB590] | – | – | NanoBRET Fold Response (FPR1, 0.1μM): 1.02; NanoBRET Fold Response (FPR1, 1μM): 0.98
20 | O=C(CCOCCOCCOCCOCCNC(=O)CCc1ccc2n1[B-](F)(F)[N+]1=C(c3ccc[nH]3)C=CC1=C2)NCCCN1CCN(C2=Nc3cc(Cl)ccc3Nc3ccccc32)CC1 [Clozapine-a-2-NB590] | – | – | NanoBRET Fold Response (FPR1, 0.1μM tracer): 1.01; NanoBRET Fold Response (FPR1, 1μM tracer): 1.22
